From article PMC4932538, “Alkanediamide-Linked Bisbenzamidines Are Promising Antiparasitic Agents” (Pharmaceuticals, 2016)
“Also recorded” adds a separate entry of the source. Where two headings read alike, the source gives them in different places.

Experiments:
[1] = system: T. b. brucei Lab 110 EATRO (pentamidine-sensitive); assay: In vitro antitrypanosomal activity, T.b. brucei Lab 110 EATRO; type: cell-based, Trypanosoma brucei brucei; conditions: Table S1, from IC50 of Table 1; for IC50: Trypanosoma brucei, read-out: pIC50 T.b. brucei (converted)
Method: The in vitro assays with the two isolates of T. brucei were conducted according to previously described procedures [14].

[2] = system: T. b. rhodesiense KETRi 243 (melarsoprol, pentamidine- and diminazene diaceturate-resistant); assay: In vitro antitrypanosomal activity, T.b. rhodesiense KETRI 243; type: cell-based, Trypanosoma brucei rhodesiense; conditions: Table S1, from IC50 of Table 1; for IC50: Trypanosoma brucei, RHODESIENSE, read-out: pIC50 T.b. rhod (converted)
Method: (§5) The anti-T. cruzi activity was determined using intracellular amastigote forms of T. cruzi Tulahuen strain C2C4 in rat skeletal myoblasts (L6 cells) as described previously [24]. The anti-L. donovani activity was determined using the amastigotes of L. donovani strain MHOM-ET-67/L82 as described previously [24]. […] The cytotoxicity assays against rat skeletal myoblast L6-cells were performed as described previously [24].

[3] = system: intracellular amastigote forms of T. cruzi Tulahuen strain C2C4 in rat skeletal myoblasts (L6 cells); assay: In vitro anti-T. cruzi activity; type: cell-based, Trypanosoma cruzi; conditions: for IC50: average of at least two determinations
Method: as §5

[4] = system: amastigotes of L. donovani strain MHOM-ET-67/L82; assay: In vitro anti-L. donovani activity; type: cell-based, Leishmania donovani; conditions: for IC50: average of at least two determinations
Method: as §5

[5] = system: P. falciparum NF54 (chloroquine-sensitive); assay: In vitro anti-plasmodial activity, NF54; type: cell-based, Plasmodium falciparum
[6] = system: P. falciparum K1 (chloroquine-resistant); assay: In vitro anti-plasmodial activity, K1; type: cell-based, Plasmodium falciparum
Method: as §5

[7] = system: rat skeletal myoblast L6-cells; assay: Cytotoxicity against L6 cells; type: cell-based
Method: as §5

poly(dA-dT) = assay: DNA thermal melting with poly(dA-dT); type: binding; conditions: 1:5 compound to DNA base pair ratio; mean of at least two determinations
Method: (§1) In addition to the determination of the potency of the synthesized compounds against different strains of cell lines (Table 1), thermal melting experiments of these compounds were also conducted with poly(dA-dT) and calf thymus DNA (Table S1, supplementary file). […] The weaker binding to DNA (lower ΔTm values) compared to pentamidine might be attributed to the lower lipophilicity and higher PSA properties of these compounds since they would be expected to bind less favorably in the less polar environment of the minor grove of DNA as was reported for the aza-analogues of furamidine. […] Therefore, ability of these compounds to act at other potential targets cannot be ruled out.
(§2) The DNA binding affinity of the tested compounds was determined by measuring the change in mid-point of the thermal denaturation curves for a 1:5 compound to DNA base pair ratio as described previously. Each Tm value reported in Table S1 (supplementary file) represents the mean of at least two experimental determinations.

calf thymus DNA = assay: DNA thermal melting with calf thymus DNA; type: binding; conditions: 1:5 compound to DNA base pair ratio; mean of at least two determinations
Method: as §1, §2

[8] = system: T. b. brucei Lab 110 EATRO (pentamidine-sensitive); design: method as in PMID 19736009; conditions: strain Lab 110; average of at least two determinations; cited from earlier work
[9] = system: T. b. rhodesiense KETRi 243 (melarsoprol, pentamidine- and diminazene diaceturate-resistant); design: method as in PMID 19736009; conditions: strain KETRI 243; average of at least two determinations; read-out: IC50 T.b. rhod; cited from earlier work
[10] = system: T.b. brucei Lab 110 EATRO; assay: In vivo trypanocidal activity in mice, Lab 110 EATRO; conditions: for Mean Survival: 1.0, 2.5, 5, 10 mg/kg/day i.p. for 3 days (all doses)
Method: (§3) The compounds were administered via the intraperitoneal route at doses ranging from 1.0 mg/kg/day to 25.0 mg/kg/day for 3 days unless otherwise noted. Pentamidine was used as the reference compound. All three of the tested compounds were effective in curing mice infected with the Lab 110 EATRO or KETRI 2002 strains at several doses.
(§4) The in vivo studies were conducted according to the procedures described previously.

[11] = system: T.b. rhodesiense KETRI 2002; assay: In vivo trypanocidal activity in mice, KETRI 2002; conditions: for Mean Survival: KETRI 2002
Method: as §3, §4

[12] = system: T.b. rhodesiense KETRI 2538; assay: In vivo trypanocidal activity in mice, KETRI 2538; conditions: KETRI 2538; 1.0, 5, 10 mg/kg/day i.p. for 3 days (all doses)
Method: as §3, §4

[13] = system: T.b. rhodesiense KETRI 1992; assay: In vivo trypanocidal activity in mice, KETRI 1992; conditions: for Mean Survival: KETRI 1992
[14] = system: both strains of P. falciparum; assay: In vitro activity and selectivity, both strains of P. falciparum; type: cell-based, Plasmodium falciparum
Method: The selectivity index of these compounds for T. brucei (SIT.b) or P. falciparum (SIP.f) are defined as the ratio of the L6 cells IC50 to the T. brucei or P. falciparum IC50 values.
The in vitro assays with the two isolates of T. brucei were conducted according to previously described procedures [14]. […] The cytotoxicity assays against rat skeletal myoblast L6-cells were performed as described previously [24].

[15] = chloroquine-sensitive strain, read-out: IC50 P. falcip NF54
[16] = chloroquine-resistant strain, read-out: IC50 P. falcip K1
[17] = cytotoxicity, read-out: IC50 L6 Cells
[18] = Plasmodium falciparum, K1, Table S1, from IC50 of Table 1, read-out: pIC50 P. falcip K1 (converted)
[19] = Trypanosoma cruzi, TULAHUEN, L6
[20] = Plasmodium falciparum, K1, chloroquine-resistant strain, read-out: IC50 P. falcip K1
[21] = Rattus norvegicus, L6, cytotoxicity, read-out: IC50 L6 Cells

| Compound | pIC50 T.b. brucei [1] | pIC50 T.b. rhod [2] | IC50 [3] [nM] | IC50 [4] [nM] | IC50 [5, 15] [nM] | pIC50 P. falcip K1 ([6]; Table S1, from IC50 of Table 1) | IC50 [6, 16] [nM] | IC50 [7, 17] [nM] | Thermal Melting ΔTm Poly(dA-dT) (poly(dA-dT)) [C] | Thermal Melting ΔTm CT-DNA (calf thymus DNA) [C] | IC50 [8] [nM] | IC50 [9] [nM] | further results |
| --- | --- | --- | --- | --- | --- | --- | --- | --- | --- | --- | --- | --- | --- |
| N,N′-bis[4-(aminoiminomethyl)phenyl] nonane-1,9-dicarboxamide [Compound 13] | 6.398 | 6.620 | 99500 | 67400 | 2 | 8.097 | 8 | 49200 | 7.5 | 4.6 | 400 | 240 |  |
| N,N′-bis[4-(aminoiminomethyl)phenyl] heptane-1,7-dicarboxamide [Compound 11] | 8.699 | 8.699 | > 100000 | > 100000 | 2 | 8.699 | 2 | 43000 | 10.7 | 6.4 | 2 | 2 | Mean Survival [10]: >30 days; curing of infected mice ([10]; i.p., 3 days): the most effective; also recorded: highly effective; curing of infected mice ([11]; KETRI 2002, i.p., 3 days): the most effective; also recorded: highly effective; Mean Survival ([11]; 1.0, 2.5, 5, 10 mg/kg/day i.p. for 3 days (all doses)): >30 days |
| N=C(N)c1ccc(OCCCCCOc2ccc(C(=N)N)cc2)cc1 [Pentamidine, pentamidine, reference compound] |  |  |  |  |  |  |  |  | 21.6 | 11.6 |  | 2 | IC50 [1]: 2 nM; IC50 [2]: 2 nM; IC50 [6, 18]: 180 nM; Mean Survival [10]: >30 days; Mean Survival ([11]; 1.0, 5, 10 mg/kg/day i.p. for 3 days (all doses)): >30 days; Mean Survival [12]: >30 days; Mean Survival ([13]; 1 mg/kg/day i.p. for 3 days): 12.6 days; Mean Survival ([13]; 5 mg/kg/day i.p. for 3 days): 17.0 days; Mean Survival ([13]; 10 mg/kg/day i.p. for 3 days): 22.2 days; curing of infected mice ([13]; drug-resistant KETRI 1992, i.p., 3 days): ineffective |
| CCN(CC)CCCC(C)Nc1ccnc2cc(Cl)ccc12 (stereo not shown) [chloroquine, reference compound] |  |  |  |  |  |  |  |  |  |  |  |  | IC50 ([5]; Plasmodium falciparum, NF54, read-out: IC50 P. falcip NF54): 6 nM; IC50 ([6]; Plasmodium falciparum, K1, read-out: IC50 P. falcip K1): 180 nM |
| N=C(N)c1ccc(NC(=O)CCCCC(=O)Nc2cccc(C(=N)N)c2)cc1 [Compound 10] | 7.921 | 8.155 | > 100000 | > 100000 | 15 | 8.398 | 4 | > 100000 |  |  | 12 | 7 |  |
| NC(=O)c1cccc(NC(=O)CCCCC(=O)Nc2cccc(C(N)=O)c2)c1 [Compound 9] |  |  |  |  |  |  |  |  | 0.0 |  |  | 1970 | IC50 [2]: 1970 nM; IC50 [3, 19]: > 100000 nM; IC50 ([4]; Leishmania donovani): > 100000 nM; IC50 [6, 20]: > 100000 nM; IC50 [7, 21]: 46400 nM |
| N=C(N)c1cccc(NC(=O)CCCCC(=O)Nc2cccc(C(=N)N)c2)c1 [Compound 7] | 7.387 | 7.678 | > 100000 | > 100000 |  | 6.420 | 380 | > 100000 | 13.8 |  | 41 | 21 |  |
| O=C(Cn1ccnc1[N+](=O)[O-])NCc1ccccc1 [benznidazole, reference compound] |  |  |  |  |  |  |  |  |  |  |  |  | IC50 [3, 19]: 1130 nM |
| N=C(N)c1ccc(NC(=O)CCCCCCCCC(=O)Nc2ccc(C(=N)N)cc2)cc1 [Compound 14] | 8.699 | 8.398 | 76400 | 68500 | 14 | 7.921 | 12 | 78600 | 10.0 | 6.6 | 2 | 4 |  |
| N,N′-bis[4-(aminoiminomethyl)phenyl] butane-1,4-dicarboxamide [Compound 2] | 5.046 | 5.660 | > 100000 | > 100000 |  | 6.538 | 290 | 28000 | 11.5 | 8.1 | 9000 | 2190 |  |
| N,N′-bis[4-(aminoiminomethyl)phenyl] dodecane-1,12-dicarboxamide [Compound 15] | 8.097 | 8.155 | 80900 | 10700 | 32 | 7.824 | 15 | 80200 | 8.5 |  | 8 | 7 |  |
| NC(=O)c1ccc(NC(=O)CCCCC(=O)Nc2ccc(C(N)=O)cc2)cc1 [Compound 8] |  |  |  |  |  |  |  |  | 0.0 |  | 2800 | 1100 | IC50 [1]: 2800 nM; IC50 [2]: 1100 nM; IC50 [3, 19]: > 100000 nM; IC50 ([4]; Leishmania donovani): > 100000 nM; IC50 [6, 20]: > 100000 nM; IC50 [7, 21]: > 100000 nM |
| N=C(N)c1ccc(NC(=O)CCCCCCC(=O)Nc2ccc(C(=N)N)cc2)cc1 [Compound 12] | 8.523 | 9.000 | > 100000 | > 100000 | 2 | 8.222 | 6 | 38400 | 13.2 | 7.1 | 3 | 1 |  |
| N#Cc1ccc(NC(=O)CCCC(=O)Nc2ccc(C#N)cc2)cc1 [Compound 3] |  |  |  |  |  |  |  |  | 0.15 | −0.2 | 6500 | 7900 | IC50 [1]: 6500 nM; IC50 [2]: 7910 nM; IC50 [3, 19]: > 100000 nM; IC50 ([4]; Leishmania donovani): > 100000 nM; IC50 [6, 18]: 44800 nM; IC50 [6, 20]: 44800 nM; IC50 [7, 21]: > 100000 nM |
| COc1cc([C@@H]2c3cc4c(cc3[C@H](O)[C@H]3COC(=O)[C@H]23)OCO4)cc(OC)c1OC [podophyllotoxin, reference compound] |  |  |  |  |  |  |  |  |  |  |  |  | IC50 ([7]; Rattus norvegicus, L6, read-out: IC50 L6 Cells): 10 nM |
| N,N′-bis[4-(aminoiminomethyl)phenyl] ethane-1,2-dicarboxamide [Compound 1] |  |  | > 100000 | > 100000 | 8 | 8.523 | 3 | > 100000 |  |  |  |  | activity against T. cruzi ([3]; in vitro): inactive; activity against L. donovani ([4]; in vitro): inactive; IC50 ([14]; range over NF54 and K1, read-out: IC50 against both strains of P. falciparum): 3 to 8 nM; selectivity index for P. falciparum (SIP.f) ([14]; ratio of the L6 cells IC50 to the P. falciparum IC50): > 33,000 |
